The target in this experiment is Human immunodeficiency virus type 1 integrase (Human immunodeficiency virus 1, UniProt Q7ZJM1). The experiment is described as follows: Inhibition of N-terminal His/flag-tagged HIV1 integrase expressed in Escherichia coli BL21 (DE3) incubated for 2.5 hrs by HTRF assay. (TR-FRET usually uses a lanthanide donor and a delayed reading to cut background.)

This note sets out measurements from ChEMBL document CHEMBL4266006, “Synthesis and Evaluation of Aryl Quinolines as HIV-1 Integrase Multimerization Inhibitors” (ACS Med Chem Lett, 2018).

Human immunodeficiency virus type 1 integrase, sequence (Q7ZJM1 whole entry): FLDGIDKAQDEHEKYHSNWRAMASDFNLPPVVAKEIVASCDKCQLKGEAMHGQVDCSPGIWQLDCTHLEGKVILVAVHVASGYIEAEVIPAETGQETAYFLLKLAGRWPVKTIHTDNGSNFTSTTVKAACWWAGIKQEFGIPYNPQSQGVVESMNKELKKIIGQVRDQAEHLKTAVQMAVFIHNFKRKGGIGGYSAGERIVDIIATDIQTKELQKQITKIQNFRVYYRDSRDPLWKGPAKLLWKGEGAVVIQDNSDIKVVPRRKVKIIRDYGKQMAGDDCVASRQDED

On to `CSc1ccc(-c2c(C(OC(C)(C)C)C(=O)O)c(C)nc3ccccc23)cc1` (configuration not stated), for which the concentration giving a half-maximal response (EC50) (usually the concentration needed to bring the measured effect to its halfway point) (read-out: EC50) is 490 nM.

Regarding `Cc1nc2ccccc2c(-c2cccc(C#N)c2)c1C(OC(C)(C)C)C(=O)O` (configuration not stated), the EC50 entry was “Not Active”.

As to `Cc1ccc(-c2c(C(OC(C)(C)C)C(=O)O)c(C)nc3ccccc23)cc1` (configuration not stated), the EC50 (read-out: EC50) came to 240 nM.

As for `Cc1nc2ccccc2c(-c2ccc(C(F)(F)F)cc2)c1C(OC(C)(C)C)C(=O)O` (configuration not stated), the EC50 (read-out: EC50) amounted to 720 nM.

Take `Cc1nc2ccccc2c(-c2ccc3c(c2)OCCO3)c1C(OC(C)(C)C)C(=O)O` (configuration not stated): the EC50 (read-out: EC50) was 80 nM.

Turning to `COc1ccc(-c2c(C(OC(C)(C)C)C(=O)O)c(C)nc3ccccc23)cc1OC` (configuration not stated), under “read-out: EC50”, the EC50 is 3700 nM.

As for `CSc1ccccc1-c1c(C(OC(C)(C)C)C(=O)O)c(C)nc2ccccc12` (configuration not stated), the EC50 (read-out: EC50) came to 4510 nM.

Regarding `Cc1nc2ccccc2c(-c2ccc3c(c2)CCCO3)c1C(OC(C)(C)C)C(=O)O` (configuration not stated), the EC50 (read-out: EC50) was found to be 27 nM.

As for `Cc1nc2ccccc2c(-c2ccc(C#N)cc2)c1C(OC(C)(C)C)C(=O)O` (configuration not stated), under “read-out: EC50”, the EC50 turned out to be 2970 nM.

In the case of `Cc1nc2ccccc2c(-c2ccc(F)cc2)c1C(OC(C)(C)C)C(=O)O` (configuration not stated), the EC50 (read-out: EC50) amounted to 490 nM.

`Cc1nc2ccccc2c(-c2ccc3c(c2)c2ccccc2n3-c2ccccc2)c1C(OC(C)(C)C)C(=O)O` (configuration not stated): the 50% effective concentration (EC50) result was “Not Active”.

With `Cc1nc2ccccc2c(-c2cccs2)c1C(OC(C)(C)C)C(=O)O` (configuration not stated), the EC50 result is “Not Active”.

`Cc1nc2ccccc2c(-c2ccc(Cl)cc2)c1C(OC(C)(C)C)C(=O)O` (configuration not stated): the EC50 (read-out: EC50) was 100 nM.

`COc1cccc(-c2c(C(OC(C)(C)C)C(=O)O)c(C)nc3ccccc23)c1` (configuration not stated): the EC50 (read-out: EC50) was 1380 nM.

In the case of `Cc1nc2ccc(Br)cc2c(-c2ccc(Cl)cc2)c1C(OC(C)(C)C)C(=O)O` (configuration not stated), the EC50 (read-out: EC50) came out at 70 nM.

In the case of `Cc1nc2ccccc2c(-c2ccccc2)c1C(OC(C)(C)C)C(=O)O` (configuration not stated), the EC50 (read-out: EC50) is 1320 nM.

As for `Cc1nc2ccccc2c(-c2ccc(OC(F)(F)F)cc2)c1C(OC(C)(C)C)C(=O)O` (configuration not stated), the EC50 (read-out: EC50) is 350 nM.

Regarding `Cc1nc2ccccc2c(-c2cccc(F)c2)c1C(OC(C)(C)C)C(=O)O` (configuration not stated), the EC50 (read-out: EC50) amounted to 2110 nM.

On to `COc1ccccc1-c1c(C(OC(C)(C)C)C(=O)O)c(C)nc2ccccc12` (configuration not stated), for which the EC50 (read-out: EC50) came to 8390 nM.

For the molecule `CC(=O)c1ccc(-c2c(C(OC(C)(C)C)C(=O)O)c(C)nc3ccccc23)cc1` (configuration not stated), where the note is “read-out: EC50”, the concentration giving a half-maximal response (EC50) came to 1390 nM.

On to `Cc1nc2ccccc2c(-c2ccoc2)c1C(OC(C)(C)C)C(=O)O` (configuration not stated), for which the EC50 (read-out: EC50) is 2210 nM.

Consider `CC(=O)Nc1ccc(-c2c(C(OC(C)(C)C)C(=O)O)c(C)nc3ccccc23)cc1` (configuration not stated), for which the EC50 (read-out: EC50) was 8410 nM.

In the case of `COc1ccc(-c2c(C(OC(C)(C)C)C(=O)O)c(C)nc3ccccc23)cc1` (configuration not stated), the EC50 (read-out: EC50) was found to be 230 nM.

Regarding `Cc1cccc(-c2c(C(OC(C)(C)C)C(=O)O)c(C)nc3ccccc23)c1` (configuration not stated), the EC50 (read-out: EC50) was determined as 950 nM.

For the molecule `Cc1nc2ccccc2c(-c2ccccc2C#N)c1C(OC(C)(C)C)C(=O)O` (configuration not stated), the EC50 (read-out: EC50) was found to be 11100 nM.

Regarding `Cc1nc2ccccc2c(-c2cccc(Cl)c2)c1C(OC(C)(C)C)C(=O)O` (configuration not stated), the EC50 (read-out: EC50) came to 3790 nM.

`Cc1nc2ccccc2c(-c2ccc(-c3ccccc3)cc2)c1C(OC(C)(C)C)C(=O)O` (configuration not stated): the EC50 entry is “Not Active”.

Turning to `Cc1nc2ccccc2c(-c2ccccc2F)c1C(OC(C)(C)C)C(=O)O` (configuration not stated), for the setting “read-out: EC50”, the EC50 was determined as 580 nM.

`Cc1nc2ccccc2c(-c2cncnc2)c1C(OC(C)(C)C)C(=O)O` (configuration not stated): the EC50 result is reported as “Not Active”.

In the case of `Cc1ccccc1-c1c(C(OC(C)(C)C)C(=O)O)c(C)nc2ccccc12` (configuration not stated), the EC50 (read-out: EC50) was 510 nM.

In the case of `CSc1cccc(-c2c(C(OC(C)(C)C)C(=O)O)c(C)nc3ccccc23)c1` (configuration not stated), the EC50 (read-out: EC50) was found to be 1000 nM.

In the case of `Cc1nc2ccccc2c(-c2ccccc2Cl)c1C(OC(C)(C)C)C(=O)O` (configuration not stated), under “read-out: EC50”, the EC50 turned out to be 260 nM.
